Literature values, collected in US20220323409A1, “MODIFIED RELEASE FORMULATIONS AND USES THEREOF” (SUNOVION PHARMACEUTICALS INC., priority 2019, published 2022).

Tests used:
[1] = Taubel et al. 2017
[2] = 400-800 mg/day dosage range, product label

SMILES: CCN1CCCC1CNC(=O)c1cc(S(=O)(=O)CC)c(N)cc1OC (racemic) [Racemic (50:50), 4-amino-N-[(1-ethylpyrrolidin-2-yl)methyl]-5-ethylsulfonyl-2-methoxy-benzamide]
- QT interval prolongation versus plasma concentration [1]: substantially linear increase of prolongation with plasma concentration
- frequency of movement related adverse events (tremor, rigidity, hypokinesia, hypersalivation, akathisia, dyskinesia) [2]: very common
